Test results: patent US9206432B2, “Sulfonylurea-responsive repressor proteins” (priority 2008, dated 2015)

How the values were obtained:
[1] = system: lacZ under control of the tetA promoter (PtetA) in E. coli KM3; format: cell-based; conditions: L1 hits, SU compounds at 20 μg/ml
tet operator (tetO) = experiment: Electrophoretic gel mobility shift assay (EMSA), operator binding and release by inducer; conditions: ethametsulfuron repressor protein (L7A11) on TetO (FIG. 7)
[2] = pH 7; cited from earlier work

| SMILES | potency as activator compared with Harmony® [1] | operator release by inducer (tet operator (tetO)) | logP [2] |
| --- | --- | --- | --- |
| CCOC(=O)c1ccccc1S(=O)(=O)NC(=O)Nc1nc(Cl)cc(OC)n1 [chlorimuron, Chlorimuron-ethyl, reference compound] | more potent activators than the starting ligand Harmony® |  |  |
| CCOc1nc(NC)nc(NC(=O)NS(=O)(=O)c2ccccc2C(=O)OC)n1 [ethametsulfuron, Ethametsulfuron-methyl, reference compound] | more potent activators than the starting ligand Harmony® | inducer preference for operator release by Es compared to Cs |  |
| COC(=O)c1sccc1S(=O)(=O)NC(=O)Nc1nc(C)nc(OC)n1 [Harmony®, Thifensulfuron-methyl] |  |  | ~0.02 |
| Cc1c2c(c(O)c3c(O)cccc13)C(=O)[C@]1(O)C(=O)C(C(N)=O)=C(O)[C@@H](N(C)C)[C@@H]1C2 [atc, anhydrotetracycline] |  | No change in operator release |  |
| COc1nc(C)nc(NC(=O)NS(=O)(=O)c2ccccc2Cl)n1 [chlorsulfuron, 2 chloro N ((4 methoxy 6 methy 1,3,5 triazine 2 yl)aminocarbonyl)benzenesulfonamide, reference compound] | more potent activators than the starting ligand Harmony® |  |  |
